Measured values from patent publication US10851116B2, “Bicyclic amines as novel JAK kinase inhibitors” (LEO Pharma A/S, priority 2017, dated 2020).

How the values were obtained:
[1] = target: JAK1 (Homo sapiens (Human), UniProt P23458); test: JAK kinase assay (HTRF), JAK1; assay type: biochemical; conditions: catalytic domain (aa 850-1154), GST-tag, ATP at Km (7 μM)
Procedure: (§1) Human baculovirus-expressed JAK1, 2, 3 and TYK2 were purchased from Carna Biosciences, Inc. All four purified enzymes contain only the catalytic domain. JAK1 (aa 850-1154) and TYK2 (aa 871-1187) are expressed with an N-terminally fused GST-tag, and JAK2 and JAK3 with an N-terminally fused His-tag.
(§2) Inhibition of phosphorylation of a synthetic peptide was measured in an HTRF-based assay using the TK substrate-Biotin from the Cisbio HTRFKinEASE TK kit. First, 2 μl of TK solution (TK substrate-biotin in kinase buffer [1× enzymatic buffer from HTRFKinEASE TK kit, 1 mM DTT]) is added to a plate containing 1 μl prediluted compound (final assay concentration DMSO: 0.75%). Then, 5 μl kinase-ATP mix (prepared in kinase buffer) is added to the wells and the plates are incubated at RT for 20-30 min. For all four kinases a concentration of ATP that corresponded to the Km for ATP was used. The final concentrations of buffers, substrate, kinase and ATP were: JAK1: 50 mM Hepes buffer pH 7.0, 0.01% BSA, 10 mM MgCl2, 1 mM DTT, 7 μM ATP, 50 nM SEB, 1 μM TK Substrate-Biotin and 5 ng JAK1; JAK2: 50 mM Hepes buffer pH 7.0, 0.01% BSA, 5 mM MgCl2, 1 mM DTT, 4 μM ATP, 1 μM TK Substrate-Biotin and 0.1 ng JAK2; JAK3: 50 mM Hepes buffer pH 7.0, 0.01% BSA, 5 mM MgCl2, 1 mM DTT, 2 μM ATP, 1 μM TK Substrate-Biotin and 0.3 ng JAK3; TYK2: 50 mM Hepes buffer pH 7.0, 0.01% BSA, 5 mM MgCl2, 1 mM DTT, 13 μM ATP, 50 nM SEB, 1 μM TK Substrate-Biotin and 0.8 ng TYK2. Thereafter, the kinase reaction is stopped by adding 4 μl detection mix (final concentrations: 50 mM Hepes buffer pH 7.0, 0.01% BSA, 0.8 M KF, 20 mM EDTA, 42 nM Streptavidin-XL665 and 1:400 STK Ab Cryptate) and the plates are incubated overnight in the dark. The HTRF signal is read using an Envision plate reader.

[2] = target: JAK2 (Homo sapiens (Human), UniProt O60674); test: JAK kinase assay (HTRF), JAK2; assay type: biochemical; conditions: catalytic domain, His-tag, ATP at Km (4 μM)
Procedure: as §1, §2

[3] = target: JAK3 (Homo sapiens (Human), UniProt P52333); test: JAK kinase assay (HTRF), JAK3; assay type: biochemical; conditions: catalytic domain, His-tag, ATP at Km (2 μM)
Procedure: as §1, §2

[4] = target: TYK2 (Homo sapiens (Human), UniProt P29597); test: JAK kinase assay (HTRF), TYK2; assay type: biochemical; conditions: catalytic domain (aa 871-1187), GST-tag, ATP at Km (13 μM)
Procedure: as §1, §2

[5] = in vitro metabolic stability in human liver microsomes; assay type: in vitro ADME; conditions: compound 0.5 μM, human liver microsomes 0.5 mg/mL, NADPH, 40 min, 37° C.; for CLint scaled at 0.5 μM: human, liver microsomes, read-out: Human liver microsome Clapp (apparent intrinsic clearance)
Procedure: To assess the in vitro metabolic stability, the compounds (0.5 μM) were incubated in duplicates with human liver microsomes (0.5 mg/mL) in phosphate buffer and NADPH, in 96-well plates for 40 min (37° C.), using a liquid handling robot (Hamilton Microlab Star). Sample aliquots were taken at 0, 5, 10, 20 and 40 min, and dispensed into cold acetonitrile, in order to stop the reactions. The plates were centrifuged for 30 minutes before the samples were analyzed using liquid chromatography coupled to a time-of-flight mass spectrometer (AB Sciex API5600). The compound depletion over time was used to estimate the elimination rate constant, from which the apparent intrinsic clearance, Clapp, was calculated and the values are listed in table 2.

Sequence of JAK1 (P23458 850-1154): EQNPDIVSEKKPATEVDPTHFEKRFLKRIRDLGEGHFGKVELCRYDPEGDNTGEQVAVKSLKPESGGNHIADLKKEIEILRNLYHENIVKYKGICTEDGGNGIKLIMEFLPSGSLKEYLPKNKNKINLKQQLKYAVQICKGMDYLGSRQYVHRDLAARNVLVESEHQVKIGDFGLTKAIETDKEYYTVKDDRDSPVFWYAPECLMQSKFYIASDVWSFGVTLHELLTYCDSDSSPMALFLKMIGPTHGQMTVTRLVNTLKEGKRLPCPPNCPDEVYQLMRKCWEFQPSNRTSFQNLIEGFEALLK
Sequence of JAK3 (P52333 822-1111): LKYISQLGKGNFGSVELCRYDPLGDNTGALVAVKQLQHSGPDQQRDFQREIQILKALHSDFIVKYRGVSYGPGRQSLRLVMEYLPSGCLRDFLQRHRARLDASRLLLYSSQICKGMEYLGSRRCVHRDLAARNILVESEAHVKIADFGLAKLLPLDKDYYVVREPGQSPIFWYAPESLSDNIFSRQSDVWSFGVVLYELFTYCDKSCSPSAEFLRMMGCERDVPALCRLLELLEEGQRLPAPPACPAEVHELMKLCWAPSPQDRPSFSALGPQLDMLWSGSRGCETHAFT
Sequence of JAK2 (O60674 849-1124): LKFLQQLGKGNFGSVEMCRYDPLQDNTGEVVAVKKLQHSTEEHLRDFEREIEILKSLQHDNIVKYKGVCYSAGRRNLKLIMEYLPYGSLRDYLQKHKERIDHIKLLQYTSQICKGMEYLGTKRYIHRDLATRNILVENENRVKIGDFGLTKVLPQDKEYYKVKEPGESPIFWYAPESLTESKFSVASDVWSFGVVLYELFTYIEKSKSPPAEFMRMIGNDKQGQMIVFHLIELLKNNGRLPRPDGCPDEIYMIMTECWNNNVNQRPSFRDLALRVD
Sequence of TYK2 (P29597 871-1187): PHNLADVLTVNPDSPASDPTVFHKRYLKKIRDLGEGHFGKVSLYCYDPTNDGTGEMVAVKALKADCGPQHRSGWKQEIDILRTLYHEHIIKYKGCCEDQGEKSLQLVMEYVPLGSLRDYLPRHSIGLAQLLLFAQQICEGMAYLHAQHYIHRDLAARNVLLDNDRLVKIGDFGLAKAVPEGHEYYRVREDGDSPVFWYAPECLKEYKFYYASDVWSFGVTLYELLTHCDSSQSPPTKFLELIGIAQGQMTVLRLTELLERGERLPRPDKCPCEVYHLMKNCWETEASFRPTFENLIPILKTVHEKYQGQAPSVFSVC

| Structure (SMILES) | EC50 [1] [nM] | EC50 [2] [nM] | EC50 [3] [nM] | EC50 [4] [nM] | CLint scaled at 0.5 μM [5] [mL/min/kg] | Human liver microsome Clapp (apparent intrinsic clearance) [5] [mL/min/kg] |
| --- | --- | --- | --- | --- | --- | --- |
| C[C@]12CN(c3ccc(C#N)nn3)C[C@H]1CCN(c1ncnc3[nH]ccc13)C2 (racemic) [Example 42] | 10 | 53 | 78 | 574 | 53 | – |
| CC12CN(c3ccc(C#N)cn3)C[C@H]1CCN(c1ncnc3[nH]ccc13)C2 (stereo in doubt) [Example 33, 6-[(3aS,7aS)-3a-methyl-5-(7H-pyrrolo[2,3-d]pyrimidin-4-yl)-1,3,4,6,7,7a-hexahydropyrrolo[3,4-c]pyridin-2-yl]pyridine-3-carbonitrile] | 1 | 5 | 8 | 59 | 166 | – |
| CC[C@]12CN(C=O)CC[C@H]1CCN(c1ncnc3[nH]ccc13)C2 (relative stereo) [Example 16, (4aR*,8aS*)-8a-ethyl-7-(7H-pyrrolo[2,3-d]pyrimidin-4-yl)-3,4,4a,5,6,8-hexahydro-1H-2,7-naphthyridine-2-carbaldehyde] | 13 | 41 | 43 | 176 | 116 | – |
| CC[C@]12CN(C#N)CC[C@H]1CCN(c1ncnc3[nH]ccc13)C2 (relative stereo) [Example 23, (4aR*,8aS*)-8a-ethyl-7-(7H-pyrrolo[2,3-d]pyrimidin-4-yl)-3,4,4a,5,6,8-hexahydro-1H-2,7-naphthyridine-2-carbonitrile] | 2 | 4 | 14 | 11 | – | 200 |
| CC[C@]12CN(C#N)CC[C@H]1CCN(c1ncnc3[nH]ccc13)C2 [Example 22, (4aR,8aS)-8a-ethyl-7-(7H-pyrrolo[2,3-d]pyrimidin-4-yl)-3,4,4a,5,6,8-hexahydro-1H-2,7-naphthyridine-2-carbonitrile] | 1 | 2 | 6 | 6 | 185 | – |
